# Assay results as given in patent US20140010806A1, “Treatment of Ocular Diseases” (priority 2012, published 2014).
# Assays:
# NF-κB [1] = experiment: LPS induced inflammation in mice, activated NF-κB in spleen cell nuclei; type: in vivo, ICR mice; details: about 40 mg/kg i.p. 24 hours before and 1 hour after LPS; spleens 1.5 hours after LPS
# Protocol: The capacity of selected compounds to treat LPS induced inflammation in mice was examined by a protocol similar to the protocol described above. Five groups of three ICR mice weighing about 30 g were each treated by intraperitoneal injection with 120 μL vehicle (30% sulfobutylether-cyclodextrin in water), androst-5-ene-3α,7β,16α,17β-tetrol in vehicle, androst-5-ene-3β,4β,16α,17β-tetrol in vehicle or 4β-acetoxyandrost-5-ene-3β,16α,17β-triol in vehicle. All drug and vehicle formulations were solutions, not suspensions. The sulfobutylether-cyclodextrin was obtained commercially (Cydex Pharmaceuticals, Inc., Lexena, Kans.). There were two vehicle control groups one group received vehicle alone and the other received vehicle plus LPS. […] Drug was administered at about 40 mg/kg (1.2 mg drug/animal for each administration of the drugs). Spleens were harvested from the animals at 1.5 hours after injection of LPS and spleen cells were lysed and assayed for activated NF-κB by isolating nuclei from spleen cells and measuring NF-κB from the lysed nuclei. […] The level of activated NF-κB in spleen cells from the animals that were treated with vehicle and no LPS, was essentially the same as the activated NF-κB in spleen cells from drug treated animals.
# MG-63 cells = experiment: Reversal of dexamethasone effects in MG-63 osteoblast cells; type: cell-based, human
# Description: The capacity of 17α-ethynyl-5-androstene-3β,7β,17β-triol to reverse adverse effects of glucocorticoids in bone growth was shown in the human MG-63 osteosarcoma cell line. MG-63 cells are osteoblasts, which are cells that mediate bone growth. This cell line has been used extensively to study bone biology and to characterize the biological activity of compounds for treatment of bone loss conditions (e.g., B. D. Boyan et al., J. Biol. Chem., 264(20):11879-11886, 1989; L. C. Hofbauer et al., Endocrinology, 140(10):4382-4389, 1999). Adverse toxicities associated with elevated glucocorticoid levels include a decrease in the production of IL-6 and IL-8 by osteoblasts, including the MG-63 cell line, and an increase in the expression of the 11β-hydroxysteroid dehydrogenase type 1 enzyme (11β-HSD). Increased 11β-hydroxysteroid dehydrogenase type 1 enzyme results in increased levels of endogenous glucocorticoid activity by converting endogenous cortisone to the active cortisol, which inhibits bone growth. The 11β-HSD enzyme is expressed in liver, adipose tissue, brain and bone tissues. Cortisol generated by 11β-HSD-1 contributes to osteoporosis and disorders such as stroke, neuron death, depression and Parkinson Disease. Decreases in IL-6, IL-8 and osteoprotegerin are associated with decreased bone growth by osteoblasts.
# [2] = test system: experimental autoimmune encephalomyelitis (EAE); experiment: PLP-induced experimental autoimmune encephalomyelitis (EAE); type: in vivo, SJL mice; details: for cumulative incidence of EAE or lethality: 0.1 mg q.d. po; for course of EAE compared to vehicle-treated mice: 0.1 mg q.d. po from clinical onset to day 30 post immunization; for mean cumulative score, follow-up period (day 31 to day 54, post treatment): after end of treatment on day 30
# NF-κB [3] = experiment: Kinetic analysis of NF-kB inhibition in vivo after LPS, ELISA of NF-κB in spleen cell nuclei; set-up: species or system mice; details: about 40 mg/kg i.p. 24 hours before LPS
# Protocol: Kinetic analysis of NF-kB inhibition in vivo. […] In this study, mice were treated with 17α-ethynylandrost-5-ene-3β,7β,17β-triol (about 40 mg/kg, about 1.2 mg/animal) by intraperitoneal injection of a solution (not a suspension) of the compound in vehicle (120 μL vehicle; 30% sulfobutylether-cyclodextrin in water). The drug was injected 24 hours before intraperitoneal injection of bacterial LPS (about an LD50/24). The study used two groups of 12 animals, vehicle control or drug administered 24 hours before LPS challenge. Spleens were harvested from 3 animals from both groups just before LPS challenge and at 1.5, 2.0 and 2.5 hours after administration of LPS. Spleen cells were harvested and the level of activated NF-κB was measured by assay of NF-κB in nuclei.
# Maximum NF-κB activation after LPS administration occurred at 1.5 hours in the vehicle controls, which was 4-fold increased over the pre-LPS level of activated NF-κB. The values for the vehicle control and drug treated animals are relative optical density units from ELISA measurement of NF-κB in nuclei from spleen cells.
# [4] = test system: popliteal lymph node cells; experiment: reporter antigen popliteal lymph node (PLN) assay, immune suppression; type: in vivo, BALB/C mice; details: 0.1 and 1 mg/day oral gavage
# Description: Analysis of immune suppression. Glucocorticoid steroids such as dexamethasone, prednisolone or hydrocortisone are typically immune suppressive and have significant toxicities associated with their use. Immune suppression was examined in a reporter antigen popliteal lymph node assay in mice essentially as previously described (C. Goebel et al., Inflamm. Res., 45(Suppl. 2):S85-S90, 1996; R. Pieters et al., Environmental Health Perspectives 107(Suppl. 5):673-677, 1999). […] In this protocol, the vehicle was 0.1% carboxymethylcellulose, 0.9% saline, 2% tween 80 and 0.05% phenol, which contained 17α-ethynylandrost-5-ene-3β,7β,17β-triol in suspension in drug treated animals. Assessment of activity included (1) measuring suppression of numbers of total lymphocytes, antigen specific IgM, IgG1 and IgG2a antibody secreting cells (ASC) (ELISPOT assay) in popliteal lymph node cells; (2) analysis of cell surface marker (CD4, CD8, CD19, F480, CD80, CD86) expression by flow cytometry of living cells in suspension; and (3) IL-4, TNFα and IFNγ production by lymphocytes in vitro (ELISA).
# Groups (n=5 per group) of specific pathogen free BALB/C mice were used. […] The results were analyzed by two-tailed Student's t-test with equal variance. […] Single cell suspensions were prepared, resuspended in 1 mL PBS-BSA (1%) and counted. Cell numbers, IL-4, IL-5 and IFNγ were measured.
# osteoprotegerin = experiment: Osteoprotegerin levels in mice treated daily with dexamethasone; type: in vivo
# Protocol: Osteoprotegerin levels in mice that were treated with vehicle and dexamethasone at 10 μg/day (positive control group) had 3.3 pmol/L osteoprotegerin, while animals treated with vehicle, dexamethasone and 17α-ethynyl-5-androstene-3β,7β,17β-triol at 4 mg/kg/day had 6.4 pmol/L osteoprotegerin (p<0.05).
# EAE = details: administered at the same time the animals were immunized; cited from earlier work
# [5] = compound at 10 nM, 30 nM dexamethasone
structure (smiles),measurement,setting,value
"C[C@]12CC[C@H]3[C@@H]([C@@H](O)C=C4C[C@H](O)CC[C@@]43C)[C@@H]1C[C@@H](O)[C@@H]2O [3α,7β,16α,17β-tetrahydroxyandrost-5-ene]",decrease of the level of NF-κB activation compared to the LPS+vehicle control group,NF-κB [1],about 50%
same,reversal of the decrease in osteoprotegerin synthesis by MG-63 cells,MG-63 cells; [5],normal osteoprotegerin levels
"C[C@]12CC[C@H]3[C@@H](CC=C4C[C@](O)(C(F)(F)F)CC[C@@]43C)[C@@H]1CC[C@@H]2O [3α-trifluoromethylandrost-5-ene-3β,17β-diol]",cumulative incidence of EAE or lethality,[2],none of these 3 compounds significantly influenced
same,course of EAE compared to vehicle-treated mice,[2],powerful anti-inflammatory properties
same,"mean cumulative score, follow-up period (day 31 to day 54, post treatment)",[2],10.8±10.3
"C[C@]12CC[C@H]3[C@@H]([C@H](O)C=C4C[C@@H](O)CC[C@@]43C)[C@@H]1C[C@@H](O)[C@@H]2O [3β,7α,16α,17β-tetrahydroxyandrost-5-ene]",reversal of the decrease in osteoprotegerin synthesis by MG-63 cells,MG-63 cells; [5],near normal osteoprotegerin levels
"C[C@]12CC[C@H]3[C@@H]([C@@H](O)C=C4C[C@@H](O)CC[C@@]43C)[C@@H]1C[C@@H](O)[C@@H]2O [3β,7β,16α,17β-tetrahydroxyandrost-5-ene]",cumulative incidence of EAE or lethality,[2],none of these 3 compounds significantly influenced
same,course of EAE compared to vehicle-treated mice,"[2]; listed as androst-5-ene-3β,7β,16α,17β-tetrol",powerful anti-inflammatory properties
"CC(=O)O[C@@H]1C2=CC[C@H]3[C@@H]4C[C@@H](O)[C@H](O)[C@@]4(C)CC[C@@H]3[C@@]2(C)CC[C@@H]1O [4β-acetoxyandrost-5-ene-3β,16α,17β-triol]",decrease of the level of NF-κB activation compared to the LPS+vehicle control group,NF-κB [1],about 50%
"CC12CCC(O)CC1=CC(O)C1C2CCC2(C)C(O)C(O)CC12 (stereo not drawn) [5-androstene-3β,7β,16α,17β-triol]",reversal of the decrease in osteoprotegerin synthesis by MG-63 cells,"MG-63 cells; compound at 0.1 μM, 30 nM dexamethasone",normal osteoprotegerin levels
"C#C[C@]1(O)CC[C@H]2[C@@H]3[C@@H](O)C=C4C[C@@H](O)CC[C@]4(C)[C@H]3CC[C@@]21C [17α-ethynylandrost-5-ene-3β,7β,17β-triol]",NF-κB in nuclei from spleen cells,NF-κB [3]; 0 hours (just before LPS),22 relative optical density units
same,NF-κB in nuclei from spleen cells,NF-κB [3]; 1.5 hours after LPS,2 relative optical density units
same,NF-κB in nuclei from spleen cells,NF-κB [3]; 2.0 hours after LPS,7 relative optical density units
same,NF-κB in nuclei from spleen cells,NF-κB [3]; 2.5 hours after LPS,9 relative optical density units
same,immune suppression in PLN assay,[4],"not immune suppressive, but was immune enhancing"
same,reversal of the decrease in osteoprotegerin synthesis by MG-63 cells,"MG-63 cells; compound at 1 nM, 7 hours with 30 nM dexamethasone",completely reversed
same,osteoprotegerin levels in mice,"osteoprotegerin; vehicle, dexamethasone 10 μg/day and compound at 4 mg/kg/day, 23 days, p<0.05",6.4 pmol/L
"C[C@]12CC[C@H](O)CC1=CC[C@@H]1[C@@H]2CC[C@@]2(C)[C@H]1CC[C@@]2(O)C(F)(F)F [17α-trifluoromethylandrost-5-ene-3β,17β-diol]",cumulative incidence of EAE or lethality,[2],none of these 3 compounds significantly influenced
same,course of EAE compared to vehicle-treated mice,[2],powerful anti-inflammatory properties
"C#C[C@@]1(O)CC[C@H]2[C@@H]3[C@@H](O)C=C4C[C@@H](O)CC[C@]4(C)[C@H]3CC[C@@]21C [17β-ethynylandrost-5-ene-3β,7β,17α-triol]",course of EAE compared to vehicle-treated mice,[2],powerful anti-inflammatory properties
same,"mean cumulative score, follow-up period (day 31 to day 54, post treatment)",[2],18.4±20.6
"Cc1cc(C)c(/C=C2\C(=O)Nc3ccccc32)[nH]1 [SU5416, Z-3-[(2,4-dimethylpyrrol-5-yl)methylidenyl]-2-indolinone, reference compound]",course of EAE compared to vehicle-treated mice,[2],ineffective
same,efficacy in EAE,EAE,effective
"C[C@]12CC[C@H]3[C@@H](CC=C4[C@@H](O)[C@@H](O)CC[C@@]43C)[C@@H]1C[C@@H](O)[C@@H]2O [androst-5-ene-3β,4β,16α,17β-tetrol]",decrease of the level of NF-κB activation compared to the LPS+vehicle control group,NF-κB [1],about 50%
"C[C@@H]1C[C@H]2[C@@H]3CCC4=CC(=O)C=C[C@]4(C)[C@@]3(F)[C@@H](O)C[C@]2(C)[C@@]1(O)C(=O)CO [dexamethasone, reference compound]",osteoprotegerin levels in mice,osteoprotegerin; vehicle and dexamethasone at 10 μg/day for 23 days (positive control group),3.3 pmol/L
